Test results taken from PubChem BioAssay AID248 (DTP/NCI, 2004).
“And” between values parts separate entries of the source, which are not always exact repeats. Equal entries are not always repeated. Inconclusive results and toxic doses are left out. Cut-off read from the data, not from the text of the source: active = T/C of 150% or more; inactive = T/C below 125%.

System: L1210 leukemia ip in BDF1 mice, survival T/C
Assay: NCI In Vivo Anticancer Drug Screen. Data for tumor model L1210 Leukemia (intraperitoneal) in B6D2F1 (BDF1) mice
Settings: endpoint: mean survival time, higher = longer survival
Summary of the method: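 Tumor was transplanted into mice, which were then dosed with test compound or vehicle alone. Survival was recorded for each group, and the treated figure was expressed relative to the control figure.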

[1] = dose: 100.0 mg/kg/injection, schedule: Q01DX001 (ip), vehicle: Klucel (hydroxypropylcellulose) (HPC)
[2] = dose: 100.0 mg/kg/injection, schedule: Q04DX003 (ip), vehicle: Klucel (hydroxypropylcellulose) (HPC)
[3] = dose: 200.0 mg/kg/injection, schedule: Q01DX001 (ip), vehicle: Klucel (hydroxypropylcellulose) (HPC)
[4] = dose: 200.0 mg/kg/injection, schedule: Q04DX003 (ip), vehicle: Klucel (hydroxypropylcellulose) (HPC)
[5] = dose: 400.0 mg/kg/injection, schedule: Q01DX001 (ip), vehicle: Klucel (hydroxypropylcellulose) (HPC)
[6] = dose: 400.0 mg/kg/injection, schedule: Q04DX003 (ip), vehicle: Klucel (hydroxypropylcellulose) (HPC)
[7] = dose: 50.0 mg/kg/injection, schedule: Q04DX003 (ip), vehicle: Klucel (hydroxypropylcellulose) (HPC)
[8] = dose: 100.0 mg/kg/injection, schedule: Q01DX001 (ip), vehicle: other
[9] = dose: 100.0 mg/kg/injection, schedule: Q01DX009 (ip), vehicle: Klucel (hydroxypropylcellulose) (HPC)
[10] = dose: 100.0 mg/kg/injection, schedule: Q04DX003 (ip), vehicle: saline
[11] = dose: 200.0 mg/kg/injection, schedule: Q01DX001 (ip), vehicle: other
[12] = dose: 200.0 mg/kg/injection, schedule: Q04DX003 (ip), vehicle: saline
[13] = dose: 400.0 mg/kg/injection, schedule: Q01DX001 (ip), vehicle: other
[14] = dose: 200.0 mg/kg/injection, schedule: Q04DX002 (ip), vehicle: saline with Tween-80
[15] = dose: 400.0 mg/kg/injection, schedule: Q04DX002 (ip), vehicle: saline with Tween-80
[16] = dose: 100.0 mg/kg/injection, schedule: Q01DX001 (ip), vehicle: saline
[17] = dose: 200.0 mg/kg/injection, schedule: Q01DX001 (ip), vehicle: saline
[18] = dose: 400.0 mg/kg/injection, schedule: Q01DX001 (ip), vehicle: saline
[19] = dose: 100.0 mg/kg/injection, schedule: Q04DX003 (ip), vehicle: saline with Tween-80
[20] = dose: 200.0 mg/kg/injection, schedule: Q04DX003 (ip), vehicle: saline with Tween-80
[21] = dose: 400.0 mg/kg/injection, schedule: Q04DX003 (ip), vehicle: saline with Tween-80

Measured: T/C

O=C(O)c1cccc([N+](=O)[O-])c1I
inactive: dose: 100.0 mg/kg/injection, schedule: Q01DX009 (ip), vehicle: saline with Tween-80 100 % of control | dose: 200.0 mg/kg/injection, schedule: Q01DX009 (ip), vehicle: saline with Tween-80 101 % of control | dose: 400.0 mg/kg/injection, schedule: Q01DX009 (ip), vehicle: saline with Tween-80 97 % of control

COC(=O)c1cc(Cl)ccc1OCC(=O)O
inactive: [1] 90 % of control | [2] 102 % of control | [3] 93 % of control | [4] 101 % of control | [5] 90 % of control | [6] 107 % of control

O=CNc1ccc2c(c1)Cc1cc(Br)ccc1-2
inactive: [7] 97 % of control | [2] 101 % of control | [4] 97 % of control

CCCCCCC(=O)NC1=C(N2CC2)C(=O)C(NC(=O)CCCCCC)=C(N2CC2)C1=O
inactive: dose: 25.0 mg/kg/injection, schedule: Q01DX009 (ip), vehicle: saline 110 % of control | dose: 45.0 mg/kg/injection, schedule: Q01DX009 (ip), vehicle: other 124 % of control | dose: 50.0 mg/kg/injection, schedule: Q01DX009 (ip), vehicle: saline 122 % of control | dose: 51.0 mg/kg/injection, schedule: Q01DX Z (ip), vehicle: carboxymethylcellulose (CMC) 124 % of control | dose: 51.0 mg/kg/injection, schedule: Q01DX Z (ip), vehicle: methylcellulose (MC) 107 % of control | dose: 65.0 mg/kg/injection, schedule: Q01DX009 (ip), vehicle: other 118 % of control | dose: 66.0 mg/kg/injection, schedule: Q01DX009 (ip), vehicle: Klucel (hydroxypropylcellulose) (HPC) 113 % of control | dose: 76.0 mg/kg/injection, schedule: Q01DX Z (ip), vehicle: methylcellulose (MC) 96 % of control | [8] 96 % of control | [9] 101 % of control | dose: 100.0 mg/kg/injection, schedule: Q01DX009 (ip), vehicle: saline 123 % of control | [2] 111 % of control | [10] 103 % of control | dose: 115.0 mg/kg/injection, schedule: Q01DX Z (ip), vehicle: carboxymethylcellulose (CMC) 120 % of control | dose: 150.0 mg/kg/injection, schedule: Q01DX009 (ip), vehicle: Klucel (hydroxypropylcellulose) (HPC) 97 % of control and 99 % of control | dose: 172.5 mg/kg/injection, schedule: Q01DX Z (ip), vehicle: carboxymethylcellulose (CMC) 114 % of control | [11] 108 % of control | dose: 200.0 mg/kg/injection, schedule: Q01DX009 (ip), vehicle: other 100 % of control | dose: 200.0 mg/kg/injection, schedule: Q01DX009 (ip), vehicle: saline 94 % of control | [12] 113 % of control | dose: 264.0 mg/kg/injection, schedule: Q04DX003 (ip), vehicle: Klucel (hydroxypropylcellulose) (HPC) 114 % of control | dose: 264.0 mg/kg/injection, schedule: Q04DX003 (ip), vehicle: other 111 % of control | [13] 110 % of control | [6] 118 % of control

O=C(CCCl)NC(Cc1ccccc1)c1ccccc1 (stereo not drawn)
inactive: [9] 102 % of control | [2] 96 % of control | dose: 200.0 mg/kg/injection, schedule: Q01DX009 (ip), vehicle: Klucel (hydroxypropylcellulose) (HPC) 92 % of control | [4] 98 % of control | dose: 400.0 mg/kg/injection, schedule: Q01DX009 (ip), vehicle: Klucel (hydroxypropylcellulose) (HPC) 92 % of control | [6] 95 % of control

ClCc1c(Cl)cccc1Cl
inactive: dose: 100.0 mg/kg/injection, schedule: Q04DX002 (ip), vehicle: Klucel (hydroxypropylcellulose) (HPC) 97 % of control | dose: 200.0 mg/kg/injection, schedule: Q04DX002 (ip), vehicle: Klucel (hydroxypropylcellulose) (HPC) 97 % of control | dose: 400.0 mg/kg/injection, schedule: Q04DX002 (ip), vehicle: Klucel (hydroxypropylcellulose) (HPC) 97 % of control

c1cc[c]([Ge]([CH2][CH2][Sn]([c]2ccccc2)([c]2ccccc2)[c]2ccccc2)([c]2ccccc2)[c]2ccccc2)cc1
inactive: dose: 100.0 mg/kg/injection, schedule: Q04DX002 (ip), vehicle: saline with Tween-80 102 % of control | [14] 98 % of control | [15] 98 % of control

O=C1OC(=O)C2C1C1C3C(=O)C4C5C(=O)C3C2C5C41 (stereo not drawn)
inactive: dose: 75.0 mg/kg/injection, schedule: Q04DX002 (ip), vehicle: Klucel (hydroxypropylcellulose) (HPC) 97 % of control | dose: 150.0 mg/kg/injection, schedule: Q04DX002 (ip), vehicle: Klucel (hydroxypropylcellulose) (HPC) 97 % of control | dose: 300.0 mg/kg/injection, schedule: Q04DX002 (ip), vehicle: Klucel (hydroxypropylcellulose) (HPC) 97 % of control

O=c1[nH][nH]c(=S)c(=O)[nH]1
inactive: [16] 102 % of control | [17] 98 % of control | [18] 104 % of control

CCN(c1ccccc1)P(I)(c1ccccc1)(c1ccccc1)c1ccccc1
inactive: dose: 1.17 mg/kg/injection, schedule: Q01DX001 (ip), vehicle: other 107 % of control | dose: 2.34 mg/kg/injection, schedule: Q01DX001 (ip), vehicle: other 114 % of control | dose: 4.69 mg/kg/injection, schedule: Q01DX001 (ip), vehicle: other 107 % of control

CCCCC(=O)N/N=C/c1ccc(OC)c(O)c1
inactive: [16] 109 % of control | [17] 104 % of control | [18] 106 % of control

C[C@]1(O)CC[C@H]2[C@@H]3CC[C@@H]4CC(=O)CC[C@]4(C)[C@@]3(F)C(=O)C[C@@]21C
inactive: dose: 50.0 mg/kg/injection, schedule: Q01DX Z (sc), vehicle: steriod suspending solution 96 % of control | dose: 250.0 mg/kg/injection, schedule: Q01DX Z (sc), vehicle: steriod suspending solution 101 % of control | dose: 500.0 mg/kg/injection, schedule: Q01DX Z (sc), vehicle: steriod suspending solution 98 % of control

O=C1C=C(C(=O)O)CO1
inactive: [9] 95 % of control

O=C(Cl)C(c1ccccc1)c1ccccc1
inactive: [2] 108 % of control | [4] 98 % of control | [6] 96 % of control

CC1NCCNCCNCCNC(C)c2cccc1n2 (stereo not drawn)
inactive: dose: 25.0 mg/kg/injection, schedule: Q04DX002 (ip), vehicle: saline 90 % of control | dose: 50.0 mg/kg/injection, schedule: Q04DX002 (ip), vehicle: saline 107 % of control | dose: 100.0 mg/kg/injection, schedule: Q04DX002 (ip), vehicle: saline 89 % of control

COC(=O)C(Cc1c[nH]c2ccccc12)N(C)C (stereo not drawn)
inactive: [8] 101 % of control | [11] 103 % of control | [13] 98 % of control

C/C(CC(=O)Nc1ccc(Cc2ccc(Cl)cc2)cc1)=N/Nc1ccc([N+](=O)[O-])cc1[N+](=O)[O-]
inactive: [16] 94 % of control | [17] 101 % of control

Cc1ccc(S(=O)(=O)NNC(=O)C2(C)CC2(C)C(=O)O)cc1 (stereo not drawn)
inactive: [1] 100 % of control | [2] 91 % of control | [19] 96 % of control | [3] 93 % of control | [4] 89 % of control | [20] 93 % of control | [5] 101 % of control | [6] 100 % of control | [21] 86 % of control

CN(C)c1nnnn1-c1ccccc1
inactive: [10] 100 % of control | [12] 96 % of control | dose: 400.0 mg/kg/injection, schedule: Q04DX003 (ip), vehicle: saline 105 % of control

O=C(O)CSC(SCC(=O)O)c1ccccc1Cl
inactive: [7] 96 % of control | [2] 100 % of control | [4] 96 % of control

Cc1ccc(Nc2nc(N)nc(CNc3ccc(Cl)cc3)n2)cc1
inactive: [19] 89 % of control | [20] 97 % of control | [21] 89 % of control

CCOC(=O)C1C(=O)C=C(c2ccccc2)CC1c1ccccc1 (stereo not drawn)
inactive: [14] 90 % of control | [15] 97 % of control

N#C/C(=C\c1cccs1)c1ccccc1
inactive: [7] 110 % of control | [2] 98 % of control | [4] 104 % of control
